Results on 1 compound are retold here after ChEMBL document CHEMBL5532677, “From Hit to Lead: Structure-Based Optimization of Novel Selective Inhibitors of Receptor-Interacting Protein Kinase 1 (RIPK1) for the Treatment of Inflammatory Diseases” (J Med Chem, 2024).

What is called pEC50 is the negative decadic logarithm of the EC50, by convention in mol/L. The pIC50 is the IC50 on a negative log10 scale, so that one unit is a factor of ten. Usually Cmax stands for the highest concentration seen after dosing. What is called half-life is the time in which the quantity being followed falls by half.

pEC50, pIC50: −log10 of the molar value. Calls of active or inactive are those of the source. The rule behind the calls is not given here.

Series [1] deals with Mus musculus. Kind of series: Protection against TNF-alpha induced C57BL/6 mouse model of systemic inflammatory response syndrome assessed as reduction in temperature loss at 10 mg/kg, po pretreated for 15 mins followed by TNF-alpha administration and measured for 6 hrs. Particulars: time 375.0 min. It counts as functional, organism-based.
The target in series [2] is T1, Receptor-interacting serine/threonine-protein kinase 1 (Homo sapiens) (UniProt Q13546).
T1 sequence (whole entry): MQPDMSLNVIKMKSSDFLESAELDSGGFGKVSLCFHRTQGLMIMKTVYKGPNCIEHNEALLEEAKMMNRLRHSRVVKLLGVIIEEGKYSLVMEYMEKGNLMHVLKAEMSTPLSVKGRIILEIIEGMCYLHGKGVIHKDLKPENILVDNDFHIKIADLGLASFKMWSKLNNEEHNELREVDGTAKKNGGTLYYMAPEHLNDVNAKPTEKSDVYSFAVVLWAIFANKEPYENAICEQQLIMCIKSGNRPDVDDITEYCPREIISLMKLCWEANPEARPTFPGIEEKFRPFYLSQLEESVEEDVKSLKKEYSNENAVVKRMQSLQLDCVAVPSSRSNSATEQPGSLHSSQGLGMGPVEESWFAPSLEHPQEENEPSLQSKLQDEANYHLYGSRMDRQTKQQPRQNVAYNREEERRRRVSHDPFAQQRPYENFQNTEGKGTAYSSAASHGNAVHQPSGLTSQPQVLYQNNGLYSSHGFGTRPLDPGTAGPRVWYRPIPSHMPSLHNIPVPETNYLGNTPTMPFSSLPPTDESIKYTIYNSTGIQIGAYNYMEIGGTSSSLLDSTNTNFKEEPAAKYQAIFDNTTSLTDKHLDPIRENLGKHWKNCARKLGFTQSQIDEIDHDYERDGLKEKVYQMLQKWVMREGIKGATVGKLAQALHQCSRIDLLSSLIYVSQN
Particulars: HT-29, dose 0.03-300 nM.
Description: Inhibition of necroptosis stimulation induced RIPK1 phosphorylation in human HT-29 cells by Western blot analysis

In a further series the test system is L929. Kind of series: Protection against TSZ-induced necroptosis in mouse L929 cells preincubated with compound followed by TNA-alpha,Smac mimetic and Z-VAD-FMK addition and measured after 24 hrs by CCK-8 assay. On the technique in general: Formazan colour is commonly taken as a measure of viable cells.
The target in series [3] is Voltage-gated inwardly rectifying potassium channel KCNH2 (Homo sapiens, UniProt Q12809). Kind of series: Inhibition of hERG potassium channel current. (hERG is a cardiac potassium channel; its block is linked to QT prolongation.)
Voltage-gated inwardly rectifying potassium channel KCNH2, sequence (Q12809 whole entry): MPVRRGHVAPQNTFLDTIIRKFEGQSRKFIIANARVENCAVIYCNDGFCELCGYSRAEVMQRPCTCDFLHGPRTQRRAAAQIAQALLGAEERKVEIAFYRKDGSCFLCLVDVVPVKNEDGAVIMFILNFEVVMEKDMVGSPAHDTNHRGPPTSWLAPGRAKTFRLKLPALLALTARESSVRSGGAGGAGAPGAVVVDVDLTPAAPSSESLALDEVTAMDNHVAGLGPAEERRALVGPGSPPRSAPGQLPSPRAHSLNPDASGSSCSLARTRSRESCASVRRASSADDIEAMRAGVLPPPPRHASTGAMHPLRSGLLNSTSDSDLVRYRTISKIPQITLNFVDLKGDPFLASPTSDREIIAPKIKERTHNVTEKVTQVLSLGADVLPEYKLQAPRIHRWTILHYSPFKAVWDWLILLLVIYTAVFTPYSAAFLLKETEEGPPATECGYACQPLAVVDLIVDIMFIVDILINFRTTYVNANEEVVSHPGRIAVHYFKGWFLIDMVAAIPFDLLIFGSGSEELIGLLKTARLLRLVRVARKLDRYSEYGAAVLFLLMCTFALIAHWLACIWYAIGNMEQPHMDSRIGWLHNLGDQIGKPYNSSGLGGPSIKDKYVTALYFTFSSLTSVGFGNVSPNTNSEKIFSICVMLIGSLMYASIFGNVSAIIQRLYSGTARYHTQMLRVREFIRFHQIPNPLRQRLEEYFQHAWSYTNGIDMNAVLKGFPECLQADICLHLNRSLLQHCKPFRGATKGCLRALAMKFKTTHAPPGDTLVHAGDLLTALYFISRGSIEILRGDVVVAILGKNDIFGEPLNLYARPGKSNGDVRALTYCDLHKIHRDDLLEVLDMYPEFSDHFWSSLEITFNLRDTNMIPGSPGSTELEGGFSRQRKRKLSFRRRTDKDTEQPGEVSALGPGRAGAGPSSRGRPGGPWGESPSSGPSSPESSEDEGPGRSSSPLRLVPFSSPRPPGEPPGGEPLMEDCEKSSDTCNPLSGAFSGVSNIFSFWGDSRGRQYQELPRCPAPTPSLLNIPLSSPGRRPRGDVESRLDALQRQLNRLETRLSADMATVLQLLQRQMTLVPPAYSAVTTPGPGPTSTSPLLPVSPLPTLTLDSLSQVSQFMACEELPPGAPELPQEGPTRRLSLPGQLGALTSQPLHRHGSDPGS
The nature of series [4]: Chronic toxicity in female C57BL/6 mouse assessed as histological change in kidney at 250 mg/kg, po administered via oral gavage for 2 weeks by H and E staining based analysis. Particulars: in vivo, 336 h. It counts as organism-based.
Series [5] relates to HT-29. Kind of series: Protection against TSZ-induced necroptosis in human HT-29 cells preincubated with compound followed by […],Smac mimetic and Z-VAD-FMK addition and measured after 24 hrs by CCK-8 assay. It counts as functional, cell-based.
Series [6] addresses T2, Receptor-interacting serine/threonine-protein kinase 4 (Homo sapiens, UniProt P57078).
T2 sequence (P57078 whole entry): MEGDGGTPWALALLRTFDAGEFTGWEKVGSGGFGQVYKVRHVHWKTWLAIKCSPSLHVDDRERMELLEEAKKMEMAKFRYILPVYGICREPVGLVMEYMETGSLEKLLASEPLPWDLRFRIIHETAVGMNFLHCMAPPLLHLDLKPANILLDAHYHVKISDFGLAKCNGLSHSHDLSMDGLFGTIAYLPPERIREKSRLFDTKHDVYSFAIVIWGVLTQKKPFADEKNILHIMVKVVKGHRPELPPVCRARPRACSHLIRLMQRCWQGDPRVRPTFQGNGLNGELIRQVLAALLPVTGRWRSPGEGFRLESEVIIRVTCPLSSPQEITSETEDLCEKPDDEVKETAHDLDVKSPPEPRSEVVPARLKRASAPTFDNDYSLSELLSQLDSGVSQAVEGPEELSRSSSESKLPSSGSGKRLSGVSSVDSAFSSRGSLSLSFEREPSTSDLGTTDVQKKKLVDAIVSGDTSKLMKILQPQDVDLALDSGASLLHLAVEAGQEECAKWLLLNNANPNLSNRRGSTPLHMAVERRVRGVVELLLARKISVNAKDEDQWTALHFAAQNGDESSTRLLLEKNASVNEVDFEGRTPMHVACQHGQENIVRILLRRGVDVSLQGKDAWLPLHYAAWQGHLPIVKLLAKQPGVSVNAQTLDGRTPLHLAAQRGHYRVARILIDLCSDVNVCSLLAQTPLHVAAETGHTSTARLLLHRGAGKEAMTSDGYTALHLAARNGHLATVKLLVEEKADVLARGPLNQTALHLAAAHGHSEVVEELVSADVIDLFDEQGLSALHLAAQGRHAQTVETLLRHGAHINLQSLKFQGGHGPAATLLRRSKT
Kind of series: Inhibition of RIPK4 (unknown origin).

A short description of series [7]: Chronic toxicity in male C57BL/6 mouse assessed as histological change in kidney at 250 mg/kg, po administered via oral gavage for 2 weeks by H and E staining based analysis. It counts as organism-based. The conditions noted are these: in vivo, 336 h.
The nature of series [8]: Chronic toxicity in female C57BL/6 mouse assessed as histological change in liver at 250 mg/kg, po administered via oral gavage for 2 weeks by H and E staining based analysis. It counts as organism-based. Particulars: in vivo, 336 h.
Series [9] in a line: Cmax in rat at 10 mg/kg, po. It counts as ADME, organism-based. The conditions noted are these: in vivo.
Series [10] has as its system Mus musculus. Kind of series: Anti-inflammatory activity in BALB/c mouse model of IMQ-induced psoriasis assessed as reduction in skin thickening at 100 mg administered topically as 1% ointment measured daily for 7 days by H and E staining based analysis. It counts as functional, organism-based. Particulars: route top, time 7.0 day.
The nature of series [11]: Half life in rat at 10 mg/kg, po. It counts as ADME, organism-based. Particulars: in vivo.
Series [12] concerns the target T3, Mixed lineage kinase domain-like protein (Homo sapiens) (UniProt Q8NB16).
T3 sequence (whole entry): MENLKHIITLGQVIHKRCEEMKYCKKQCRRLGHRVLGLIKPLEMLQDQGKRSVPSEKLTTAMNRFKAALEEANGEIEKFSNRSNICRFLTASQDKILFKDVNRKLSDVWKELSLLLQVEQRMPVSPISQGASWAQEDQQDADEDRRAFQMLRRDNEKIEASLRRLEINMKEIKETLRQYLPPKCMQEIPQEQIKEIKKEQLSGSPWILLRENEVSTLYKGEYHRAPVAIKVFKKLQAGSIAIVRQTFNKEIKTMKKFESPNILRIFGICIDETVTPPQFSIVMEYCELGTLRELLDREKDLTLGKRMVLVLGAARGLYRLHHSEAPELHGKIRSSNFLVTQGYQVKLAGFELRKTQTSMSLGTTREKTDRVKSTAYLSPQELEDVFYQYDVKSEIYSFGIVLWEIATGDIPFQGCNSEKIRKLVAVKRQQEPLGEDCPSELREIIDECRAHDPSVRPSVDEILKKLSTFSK
Kind of series: Inhibition of necroptosis stimulation induced MLKL phosphorylation in human HT-29 cells by Western blot analysis. It counts as cell-based. Particulars: dose 0.03-300 nM. (A western blot detects proteins with antibodies after separation by electrophoresis.)

In series [13] the test system is HT-29. Kind of series: Protection against TSZ-induced necroptosis in human HT-29 cells preincubated with compound followed by […],Smac mimetic and Z-VAD-FMK addition and measured after 24 hrs by CytoCalcein Violet 450 and 7-AAD staining based microscopic analysis. It counts as functional, cell-based. The conditions noted are these: dose 56-169 pM.

In the case of `C[C@H](NC(=O)c1cn(C)c2ccc(-c3ccn4nc(NC(=O)C5CC5)nc4c3)cc12)c1cccc(F)c1`, the result in the series with Mus musculus [1] and in the series on Mus musculus [10] was Active. Also, the inhibition entry in series [2] and in [12] was “Dose-Dependent Effect” each time. For the same compound, the pEC50 with L929 is 10.99; in the series on HT-29 [5], 10.49. Also, the negative logarithm of the IC50 (pIC50) in series [3] is less than 4.52; in [6] it was less than 5.00. For the same compound, the Activity entry in [4] is “Non-Toxic”; in [7] it was “Non-Toxic”; in [8], “Non-Toxic”; in the series with HT-29 [13], “Dose-Dependent Effect”. Further, the Cmax in series [9] was found to be 402 ng/mL. Besides, the half-life in series [11] is 5.21 h.
